Experimental findings from patent US10513529B2, “1,2,4-triazolo-[3,4-b]-1,3,4-thiadiazole derivatives” (GALENICA S.A., priority 2016, dated 2019) are described below.

For data set [1], the system named is A-549 human lung carcinoma cell line. Nature of the data set: MTT cytostatic-cytotoxic activity, A-549. In kind it is cell-based. Particulars: for TGI: A-549, 48 h treatment; for GI50 / IC50: Homo sapiens, A549, A-549, 48 h treatment; for IC50: kills 50% of the cells.
Data set [2] has as its system UWB1.289 human ovarian cancer cell line (mutant BRCA1). Nature of the data set: MTT cytostatic-cytotoxic activity, UWB1.289. Particulars: for GI50 / IC50: Homo sapiens; for GI50: UWB1289, 48 h; for GI50 / TGI: UWB1.289, 48 h treatment; for IC50: UWB1289, UWB1.289, 48 h treatment, kills 50% of the cells. In kind it is cell-based. In a few lines:
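UWB1.289 cells (BRCA1-null, p53-mutant) were seeded at 1×10^4 cells/ml per well and treated after 24 h with 1-100 μmol/l compound for 48 h, in triplicate. Viability was read by MTT (3 h, DMSO solubilisation, 540 nm). GI50, TGI and IC50 came from treated versus 24 h and 72 h control absorbances.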

The test system of data set [3] is MCF-7 human breast cancer cell line. Description: MTT cytostatic-cytotoxic activity, MCF-7. Particulars: for GI50 / IC50: Homo sapiens; for GI50: MCF7, 48 h; for GI50 / TGI: MCF-7, 48 h treatment; for IC50: MCF7, MCF-7, 48 h treatment, kills 50% of the cells. In kind it is cell-based.
A short description of a further data set: in vivo. Particulars: both sexes, mouse, in vivo, ip; C57BI/6 mice, acute toxicity. The gist of the method: (§1)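 Acute toxicity in male and female C57BI/6 mice, judged by lethality. Compounds given i.p. at several doses starting at 100mg/kg. Dosed as a suspension in corn oil after initial dissolution in 10% DMSO.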
For another data set, the system named is C57BI/6 mice. Nature of the data set: in vivo. To be noted: i.p., acute toxicity. The gist of the method: as §1
The subject of data set [4] is SKOV-3 human ovarian cancer cell line. Description: MTT cytostatic-cytotoxic activity, SKOV-3. It counts as cell-based. Particulars: for GI50 / IC50: Homo sapiens, SK-OV-3, SKOV-3, 48 h treatment; for IC50: kills 50% of the cells; for TGI: SKOV-3, 48 h treatment. The gist of the method: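 SKOV-3 and OVCAR-3 cells seeded at 1×10^4 cells/ml, treated after 24 h with 1-100 μmol/l compound for 48 h in triplicate. Viability by MTT (3 h, 37 °C), absorbance at 540 nm; GI50, TGI and IC50 computed from treated versus 24 h and 72 h control readings.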

Data set [5] concerns MOLT-4 human acute T-leukemia cell line. Description: MTT cytostatic-cytotoxic activity, MOLT-4. It counts as cell-based. Particulars: MOLT-4, 48 h treatment; for GI50 / IC50: Homo sapiens; for IC50: kills 50% of the cells.
In data set [6] the test system is PC-3 human hormone-resistant prostate cancer cell line. Nature of the data set: MTT cytostatic-cytotoxic activity, PC-3. In kind it is cell-based. To be noted: PC-3, 48 h treatment; for GI50 / IC50: Homo sapiens; for IC50: kills 50% of the cells.

The structures appear in SMILES notation.

As usually defined, the TGI is the concentration at which net growth stops. As a reminder, the GI50 is the concentration that inhibits growth by half. Low values mean more potent growth inhibition, high ones less potent growth inhibition. Broadly, the IC50 is the concentration that inhibits the measured activity by half. One may read the LD50 as the dose expected to kill half of the subjects tested. Lower therefore signals greater toxicity. For the compound `COc1cc(Cc2nnc3sc(-c4ccc(Cl)cc4)nn23)c(S(=O)(=O)N(C)C)cc1OC` [TS63, 3-[2-(N,N-dimethylsulfamoyl)-4,5-dimethoxybenzyl]-6-(4-chlorophenyl)-1,2,4-triazolo[3,4-b]-1,3,4-thiazole], the total growth inhibition concentration (TGI) in data set [1] stood at 36 µM; in data set [2] it was 50 µM; in data set [3] it was 50 µM; in data set [4] it was 38 µM; in data set [5], 45 µM; in data set [6] it was 45 µM. The GI50 stood at 14 µM in data set [1]; 30 µM in data set [2]; 22 µM in data set [3]; 8 µM in data set [4]; 6 µM in data set [5]; 20 µM in data set [6]. In addition, the IC50 in data set [1] was 92 µM; in data set [2], more than 100 µM; in data set [3], more than 100 µM; in data set [4], more than 100 µM; in data set [5], 78 µM; in data set [6], more than 100 µM. The median lethal dose (LD50) in “in vivo” stood at 430 mg/kg. The LD10 in the data set on C57BI/6 mice is on record as more than 500 mg/kg.
As to `COc1cc(Cc2nnc3sc(-c4ccc(N)cc4)nn23)c(S(=O)(=O)N(C)C)cc1OC` [TS71, 3-[2-(N,N-dimethylsulfamoyl)-4,5-dimethoxybenzyl]-6-(4-aminophenyl)-1,2,4-triazolo[3,4-b]-1,3,4-thiazole], the total growth inhibition concentration (TGI) in data set [1], in data set [2], in data set [3], in data set [4], in data set [5] and in data set [6] was more than 100 µM throughout. Besides, the GI50 was more than 100 µM in data set [1]; more than 100 µM in data set [2]; more than 100 µM in data set [3]; more than 100 µM in data set [4]; 55 µM in data set [5]; more than 100 µM in data set [6]. Also, the 50% inhibitory concentration (IC50) in data set [1], in data set [2], in data set [3], in data set [4], in data set [5] and in data set [6] was more than 100 µM in each case. The median lethal dose (LD50) in the data set “in vivo” and in the data set with C57BI/6 mice was more than 500 mg/kg in each case. In addition, in the data set on C57BI/6 mice, the LD10 is reported as more than 500 mg/kg.
As to `COc1cc(Cc2nnc3sc(-c4ccccc4)nn23)c(S(=O)(=O)N(C)C)cc1OC` [TS167, 3-[2-(N,N-dimethylsulfamoyI)-4,5-dimethoxy-benzyl]-6-phenyl-1,2,4-triazolo[3,4-b]-1,3,4-thiazole], the TGI in data set [1], in data set [2], in data set [3], in data set [4], in data set [5] and in data set [6] was more than 100 µM each time. For the same compound, the GI50 came to 74 µM in data set [1]; 56 µM in data set [2]; 65 µM in data set [3]; 80 µM in data set [4]; 42 µM in data set [5]; 62 µM in data set [6]. Further, the IC50 in data set [1], in data set [2], in data set [3], in data set [4], in data set [5] and in data set [6] was more than 100 µM throughout. Further, the LD50 in “in vivo” and in the data set with C57BI/6 mice was more than 500 mg/kg throughout. The compound also displayed an LD10 with C57BI/6 mice of more than 500 mg/kg.
